Data as given in patent US6444685B1, “N-(4-sulfonylaryl)Cyclylamine 2-hydroxyethylamines as beta-3 adrenergic receptor agonists” (Wyeth, priority 2000, dated 2002).

How the values were obtained:
[1] = biological target: T1, human β1-adrenergic receptor (Homo sapiens, UniProt P08588); experiment: cAMP accumulation (SPA) in CHO cells transfected with human β1 adrenergic receptor; type: cell-based; details: for EC50: CHO cells transfected with human β1-AR, cAMP, 15 min incubation, 10^−8 to 10^−4 M, read-out: beta-1 EC50; for beta-1 (IA) maximal response relative to isoproterenol: IA = % activity compound / % activity isoproterenol at 10^−5 M, CHO human β1 cells
T1 construct: expressed in transfected cells; host or cells: CHO cells
In short: (§1)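 CHO cell clones expressing 70–110 fmol/mg protein of receptor were pre-incubated 30 min at 37 °C, then treated 15 min at 37 °C with compound (10^−8 to 10^−4 M) in DMEM with 250 μM IBMX and 1 mM ascorbic acid. cAMP was read by SPA after acid stop. EC50 and IA were expressed relative to maximal 10^−5 M isoproterenol response.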

[2] = biological target: T2, human β3 adrenergic receptor (Homo sapiens, UniProt P13945); experiment: cAMP accumulation (SPA) in CHO cells transfected with human β3 adrenergic receptor; type: cell-based; details: for EC50: CHO cells expressing human β3-AR, cAMP, 30 min incubation, 10^−9 M to 10^−5 M, read-out: beta-3 EC50; for beta-3 (IA) maximal response relative to isoproterenol: IA = % activity compound / % activity isoproterenol at 10^−5 M, CHO human β3 cells
T2 construct: Full length β3 AR clones (402 amino acids) containing the last 6 amino acids of hβ3— AR are prepared; expressed in transfected cells; host or cells: CHO cells
In short: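 CHO cells expressing human β3-AR (70–110 fmol/mg protein) treated with compound at 10^−9 to 10^−5 M in DMEM with 250 μM IBMX and 1 mM ascorbic acid, 30 min, 37 °C. cAMP measured by SPA; EC50 derived, and intrinsic activity expressed relative to the maximal response of 10^−5 M isoproterenol.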

[3] = biological target: T3, human β2-adrenergic receptor (Homo sapiens, UniProt P07550); experiment: cAMP accumulation (SPA) in CHO cells transfected with human β2 adrenergic receptor; type: cell-based; details: for EC50: CHO cells transfected with human β2-AR, cAMP, 15 min incubation, 10^−8 to 10^−4 M, read-out: beta-2 EC50; for beta-2 (IA) maximal response relative to isoproterenol: IA = % activity compound / % activity isoproterenol at 10^−5 M, CHO human β2 cells
T3 construct: expressed in transfected cells; host or cells: CHO cells
In short: as §1

T3 sequence (P07550 whole entry): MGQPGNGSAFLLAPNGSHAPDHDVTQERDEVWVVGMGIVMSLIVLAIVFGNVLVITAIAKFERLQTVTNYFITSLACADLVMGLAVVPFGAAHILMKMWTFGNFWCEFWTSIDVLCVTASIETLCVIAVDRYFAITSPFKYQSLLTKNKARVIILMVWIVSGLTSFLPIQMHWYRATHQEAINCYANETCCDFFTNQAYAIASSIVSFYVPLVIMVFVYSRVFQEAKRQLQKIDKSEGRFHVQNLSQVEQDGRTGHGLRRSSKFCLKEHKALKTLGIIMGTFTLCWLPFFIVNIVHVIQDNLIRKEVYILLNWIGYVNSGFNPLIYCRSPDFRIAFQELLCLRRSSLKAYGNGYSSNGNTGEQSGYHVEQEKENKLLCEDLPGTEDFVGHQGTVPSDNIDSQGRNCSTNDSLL
T1 sequence (P08588 whole entry): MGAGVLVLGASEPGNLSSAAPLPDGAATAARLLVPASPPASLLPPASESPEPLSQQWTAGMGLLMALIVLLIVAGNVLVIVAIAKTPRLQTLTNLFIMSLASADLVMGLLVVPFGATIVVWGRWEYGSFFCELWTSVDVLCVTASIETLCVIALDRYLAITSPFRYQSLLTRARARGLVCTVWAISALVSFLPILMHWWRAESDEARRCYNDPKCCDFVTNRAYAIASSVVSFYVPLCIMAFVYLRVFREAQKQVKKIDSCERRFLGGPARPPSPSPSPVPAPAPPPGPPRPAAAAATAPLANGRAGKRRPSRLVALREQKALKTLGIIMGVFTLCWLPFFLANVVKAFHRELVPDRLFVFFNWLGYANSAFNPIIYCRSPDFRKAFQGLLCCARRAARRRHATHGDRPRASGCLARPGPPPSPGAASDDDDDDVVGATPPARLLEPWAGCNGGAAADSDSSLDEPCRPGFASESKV
T2 sequence (P13945 whole entry): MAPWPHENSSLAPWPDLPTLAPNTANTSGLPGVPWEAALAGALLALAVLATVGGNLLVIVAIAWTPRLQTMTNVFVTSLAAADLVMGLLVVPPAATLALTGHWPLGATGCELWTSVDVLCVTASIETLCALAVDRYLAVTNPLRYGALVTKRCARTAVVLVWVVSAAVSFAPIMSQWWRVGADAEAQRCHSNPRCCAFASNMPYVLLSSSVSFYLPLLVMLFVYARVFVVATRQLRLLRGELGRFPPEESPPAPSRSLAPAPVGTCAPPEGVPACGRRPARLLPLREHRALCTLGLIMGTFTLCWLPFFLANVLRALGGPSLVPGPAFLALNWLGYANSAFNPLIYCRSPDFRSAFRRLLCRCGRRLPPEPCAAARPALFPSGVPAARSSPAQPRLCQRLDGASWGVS

Structure (SMILES) | melting point [°C] | EC50 [1] [nM] | beta-1 (IA) maximal response relative to isoproterenol [1] | EC50 [2] [nM] | beta-3 (IA) maximal response relative to isoproterenol [2] | EC50 [3] [nM] | beta-2 (IA) maximal response relative to isoproterenol [3]
CS(=O)(=O)Nc1cc([C@@H](O)CNC2CCN(c3ccc(S(=O)(=O)N4CCC[C@@H]4C(=O)OCc4ccccc4)cc3)CC2)ccc1O [Example 21, (2R)-1-(4-{4-[(2R)-2-Hydroxy-2-(4-hydroxy-3-methanesulfonylamino-phenyl)-ethylamino]-piperidin-1-yl}-benzenesulfonyl)-pyrrolidine-2-carboxylic Acid Benzyl Ester] | 62 to 69 | 60 | (0.88) | 1 | (1) | 640 | (0.82)
CCCCNS(=O)(=O)c1ccc(N2CCC(NC[C@H](O)c3ccc(O)c(NS(C)(=O)=O)c3)CC2)cc1 [Example 14, N-Butyl-4-{4-[(2R)-2-hydroxy-2-(4-hydroxy-3-methanesulfonylamino-phenyl)-ethylamino]-piperidin-1-yl}-benzenesulfonamide] | 71 to 75 | 640 | (1) | 1 | (1.3) | 170 | (0.53)
CC#CCC(CC#CC)(C(=O)O)S(=O)(=O)c1ccc(N2CCC(NC[C@H](O)c3ccc(O)c(NS(C)(=O)=O)c3)CC2)cc1 [Example 48, 2-(2-Butynyl)-2-[(4-{4-[((2R)-2-hydroxy-2-{4-hydroxy-3-[(methylsulfonyl)amino]phenyl}ethyl)amino]-1-piperidinyl}phenyl)sulfonyl]-4-hexynoicacid] | 175 to 177 | 10000 | (0.26) | 590 | (1) | 10000 | (0.54)
CCCCNC(=O)NS(=O)(=O)c1ccc(N2CCC(NC[C@H](O)c3ccc(O)c(NS(C)(=O)=O)c3)CC2)cc1 [Example 62, 1-[4-({[(Butylamino)carbonyl]amino}sulfonyl)phenyl]-4-[((2)-2-hydroxy-2-{4-hydroxy-3-[(methylsulfonyl)amino]phenyl}ethyl)amino]piperidine] | 100 to 102 | 5000 | (0.32) | 9 | (1) | 5000 | (0.31)
CS(=O)(=O)Nc1cc([C@@H](O)CNC2CCN(c3ccc(S(=O)(=O)N4CC(=O)NC4=O)cc3)CC2)ccc1O [Example 50, N-[5-((1R)-2-{1-[4-(2,4-Dioxo-imidazolidine-1-sulfonyl)-phenyl]piperidin-4-ylamino}-1-hydroxy-ethyl)-2-hydroxy-phenyl]-methanesulfonamide] | 200 to 202 | 2600 | (0.72) | 10 | (1) | 7000 | (0.35)
CS(=O)(=O)Nc1cc([C@@H](O)CNC2CCN(c3ccc(S(=O)(=O)NCCO)cc3)CC2)ccc1O [Example 24, N-(2-Hydroxyethyl)-4-{4-[(2R)-2-hydroxy-2-(4-hydroxy-3-methanesulfonylamino-phenyl)-ethylamino]-piperidin-1-yl)-benzenesulfonamide] | 78 to 81 | 1000 | (0.35) | 33 | (0.88) | 1000 | (0.68)
CCOC(=O)CN1CCN(S(=O)(=O)c2ccc(N3CCC(NC[C@H](O)c4ccc(O)c(NS(C)(=O)=O)c4)CC3)cc2)CC1 [Example 64, Ethyl {4-((4-{4-[((2R)-2-Hydroxy-2-{4-hydroxy-3-[(methylsulfonyl)amino]-phenyl}ethyl)amino]piperidin-1-yl}phenyl)sulfonyl]piperazin-1-yl}acetate] | 91 to 92 | – | (0.11) | 4 | (1.1) | 5900 | (0.22)
CC(C)OC(=O)C1CCCN1S(=O)(=O)c1ccc(N2CCC(NCC(O)c3ccc(O)c(NS(C)(=O)=O)c3)CC2)cc1 (stereo not drawn) [Example 15, 1-(4-{4-[2-Hydroxy-2-(4-hydroxy-3-methanesulfonylamino-phenyl)-ethylamino]-piperidin-1-yl}-benzenesulfonyl)-pyrrolidine-2-carboxylic Acid Isopropyl Ester] | 52 to 58 | 13000 | (0.23) | 1 | (1) | 160 | (0.37)
CC#CCC(CC#CC)(C(=O)OC(C)(C)C)S(=O)(=O)c1ccc(N2CCC(NC[C@H](O)c3ccc(O)c(NS(C)(=O)=O)c3)CC2)cc1 [Example 47, 2-(2-Butynyl)-2-[(4-{4-[((2R)-2-hydroxy-2-{4-hydroxy-3-[(methylsulfonyl)amino]-phenyl}ethyl)amino]-1-piperidinyl}phenyl)sulfonyl]-4-hexynoicacid tert-Butyl Ester] | 93 to 95 | 1000 | (0.47) | 6 | (0.93) | 3200 | (0.46)
COc1ccc(NS(=O)(=O)c2ccc(N3CCC(NCC(O)c4ccc(O)c(NS(C)(=O)=O)c4)CC3)cc2)cc1OC (stereo not drawn) [Example 8, N-(3,4-Dimethoxy-phenyl)-4-{4-[2-hydroxy-2-(4-hydroxy-3-methanesulfonylamino-phenyl)-ethylamino]-piperidin-1-yl}-benzenesulfonamide] | 205 to 218 | 3600 | (0.41) | 16 | (0.91) | 610 | (0.28)
CN1CCN(S(=O)(=O)c2ccc(N3CCC(NC[C@H](O)c4ccc(O)c(NS(C)(=O)=O)c4)CC3)cc2)CC1 [Example 66, N-(2-Hydroxy-5-{(1R)-1-hydroxy-2-[(1-{4-[(4-methylpiperazin-1-yl)sulfonyl]phenyl}piperidin-4-yl)amino]ethyl}phenyl)methanesulfonamide] | 89 to 91 | 2700 | (0.44) | 25 | (0.95) | – | (0.17)
CCOC(=O)CN(Cc1cc(F)ccc1F)S(=O)(=O)c1ccc(N2CCC(NC[C@H](O)c3ccc(O)c(NS(C)(=O)=O)c3)CC2)cc1 [Example 61, Ethyl {(2,5-Difluorobenzyl)[(4-{4-[((2R)-2-hydroxy-2-{4-hydroxy-3-[(methyl-sulfonyl)amino]phenyl}ethyl)amino]piperidin-1-yl}phenyl)sulfonyl]amino}acetate] | 85 to 90 | 1900 | (0.3) | 1 | (1.1) | – | (0.2)
